Our source for the TGI and GI50 values is PubChem BioAssay (NCI).

The structures appear in SMILES notation. Where “and” joins values, the source holds several entries; their conditions need not be identical. Equal entries are not always repeated.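 Results reflect a 48-hour exposure of cells in 96-well plates to compound at five concentrations. GI50 is the concentration that inhibits growth by half. Definition used: TGI = concentration required for complete inhibition of growth.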

Test systems include MCF7 breast; MDA-N; UO-31 renal; K-562 leukemia; NCI-H226 lung; SW-620 colon; A549 NSCLC; T-47D breast; SK-MEL-2 melanoma.
Holding throughout (assay): NCI tumour cell line growth inhibition, 48 h

For `O=c1[nH]c(=S)[nH]c(-c2ccccc2)c1Cc1c(O)ccc2ccccc12`, the TGI in the assay with MCF7 breast is above 100 µM; in the assay with MDA-N it was 89500 nM; in the assay on UO-31 renal it was 80.9 µM; in the assay on K-562 leukemia, above 100 µM; with NCI-H226 lung, 82.1 µM; in the assay with SW-620 colon it was above 100 µM. For the same molecule, the figures for the TGI in the assay on A549 NSCLC, with T-47D breast and in the assay on SK-MEL-2 melanoma were above 100 µM, 58 µM and 48.6 µM, respectively.

On to `Nc1nc(C(=O)O)c(N=Nc2ccccc2)c(=O)[nH]1`, for which the TGI in the assay on MCF7 breast was above 100 µM; in the assay on MDA-N, above 100000 nM; with UO-31 renal, above 100 µM; with K-562 leukemia it was above 100 µM; in the assay on NCI-H226 lung, above 100 µM; in the assay on SW-620 colon, above 100 µM. For the same molecule, the TGI with A549 NSCLC and in the assay on SK-MEL-2 melanoma was above 100 µM throughout.

Turning to `CCOC(=O)C(Cc1ccc(N(CCCl)CCCl)cc1)NC(=O)C(Cc1ccccc1)NC(C)=O` (stereo not drawn), the TGI with MCF7 breast is 0.496 µM; in the assay on MDA-N, above 371 nM; with UO-31 renal it was above 0.328 µM; with K-562 leukemia it was above 0.502 µM; in the assay on NCI-H226 lung, above 1 µM; in the assay with SW-620 colon, above 1 µM. The results for the TGI with A549 NSCLC, in the assay with T-47D breast and in the assay with SK-MEL-2 melanoma were above 1 µM, above 0.928 µM and above 0.36 µM, respectively.

Consider `COC1=C(OC)[C@]2(OC)c3c(O)c(OC)c4c(c3O[C@@]23O[C@@H](c2ccccc2)CC=C3C1=O)[C@@H](OC)C[C@H](c1ccccc1)O4`, for which the GI50 with MCF7 breast was 265 nM; in the assay with MDA-N, 340 nM; in the assay with UO-31 renal, 957 nM; in the assay on K-562 leukemia, 67.6 nM; in the assay with SW-620 colon, 0.178 µM; in the assay on A549 NSCLC, 2.21 µM. In the assay on T-47D breast, the GI50 is 564 nM. Further, the TGI in the assay on MCF7 breast turned out to be 1.36 µM; in the assay with MDA-N it was 1160 nM; in the assay with UO-31 renal, 2.13 µM; with K-562 leukemia, 0.333 µM; in the assay on SW-620 colon, 0.933 µM; in the assay with A549 NSCLC, 5.02 µM. This molecule also had a TGI in the assay on T-47D breast of 1.71 µM.

For `Cc1cc(O)c2c3c(ccc2c1)C(=O)c1c(O)cccc1C3=O`, the TGI was above 100 µM in the assay with MCF7 breast; 353 nM with MDA-N; above 100 µM in the assay on UO-31 renal; above 100 µM with K-562 leukemia; above 100 µM in the assay with NCI-H226 lung; above 100 µM in the assay on SW-620 colon. For the same molecule, the TGI with A549 NSCLC, in the assay with T-47D breast and in the assay with SK-MEL-2 melanoma was above 100 µM each time.

On to `Cc1cc2c(c(=O)o1)C1=S(SC(c3ccccc3)=C1)S2` (stereo not drawn), for which the TGI is above 100 µM in the assay on MCF7 breast; above 100000 nM in the assay on MDA-N; 94.8 µM in the assay on UO-31 renal; above 100 µM in the assay with K-562 leukemia; above 100 µM in the assay with SW-620 colon; above 100 µM in the assay on A549 NSCLC. The TGI in the assay with T-47D breast and with SK-MEL-2 melanoma was above 100 µM in each case.

Turning to `O=S(=O)(NCCCNc1nccc(-c2c(-c3ccc(F)cc3)nc3sccn23)n1)c1ccc(F)cc1`, the GI50 with MCF7 breast was 3240 nM; in the assay on UO-31 renal it was 3800 nM; with K-562 leukemia, 4620 nM; in the assay with NCI-H226 lung, 4.76 µM; in the assay on SW-620 colon it was 33.2 µM; in the assay with A549 NSCLC, 4.87 µM. For the same molecule, the results for the GI50 in the assay with T-47D breast and in the assay on SK-MEL-2 melanoma were 2280 nM and 23.2 µM, respectively. For the same molecule, the TGI with MCF7 breast was above 100 µM; in the assay on UO-31 renal, above 100 µM; in the assay with K-562 leukemia, above 100 µM; in the assay with NCI-H226 lung it was 77.5 µM; in the assay with SW-620 colon, above 100 µM; in the assay with A549 NSCLC, above 100 µM. For the same molecule, the TGI with T-47D breast is 13.2 µM; in the assay with SK-MEL-2 melanoma, above 100 µM.

For the molecule `COc1ccc(S(=O)(=O)N2CCNCC2)cc1OC`, the GI50 was above 100000 nM in the assay with MCF7 breast; above 100000 nM with UO-31 renal; above 100000 nM in the assay with K-562 leukemia; above 100 µM with NCI-H226 lung; above 100 µM with SW-620 colon; above 100 µM in the assay with A549 NSCLC. Besides, the GI50 is above 100000 nM in the assay with T-47D breast and above 100 µM with SK-MEL-2 melanoma. The TGI with MCF7 breast, with UO-31 renal, in the assay on K-562 leukemia, with NCI-H226 lung, with SW-620 colon and with A549 NSCLC was above 100 µM in each case. Moreover, the TGI in the assay on T-47D breast and in the assay on SK-MEL-2 melanoma was above 100 µM throughout.

In the case of `COC(=O)c1cc([N+](=O)[O-])cc([N+](=O)[O-])c1Cl`, the GI50 with MCF7 breast is 1940 nM; with UO-31 renal, 1860 nM; in the assay with K-562 leukemia, 2240 nM; with NCI-H226 lung, 3.58 µM; in the assay on SW-620 colon it was 1.87 µM; in the assay on A549 NSCLC it was 20.4 µM. The figures for the GI50 with T-47D breast and in the assay on SK-MEL-2 melanoma were 1710 nM and 3.52 µM, respectively. The TGI is 4.6 µM in the assay with MCF7 breast; 3.95 µM with UO-31 renal; above 100 µM in the assay on K-562 leukemia; 13.9 µM with NCI-H226 lung; 3.52 µM with SW-620 colon; 46.8 µM with A549 NSCLC. The TGI was 4.21 µM with T-47D breast and 12.6 µM with SK-MEL-2 melanoma.

As for `COc1ccc(/C=N\Nc2nc(SCC(C)C)nc(-c3ccc(OC)cc3)c2C#N)cc1`, the GI50 was 13800 nM with MCF7 breast; 1500 nM in the assay on UO-31 renal; 19100 nM in the assay on K-562 leukemia; 10.5 µM in the assay on NCI-H226 lung; 5.15 µM in the assay on SW-620 colon; 0.524 µM in the assay on A549 NSCLC. For the same molecule, the GI50 was 1360 nM in the assay on T-47D breast and 17.2 µM with SK-MEL-2 melanoma. Besides, the TGI in the assay on MCF7 breast is above 100 µM; in the assay on UO-31 renal, 3.73 µM; in the assay on K-562 leukemia, above 100 µM; in the assay on NCI-H226 lung, 49.7 µM; in the assay with SW-620 colon, above 100 µM; with A549 NSCLC, 16.2 µM. For the same molecule, the TGI with T-47D breast was 10.7 µM; in the assay with SK-MEL-2 melanoma it was 39.7 µM.

As for `O=S(=O)(NCCCNc1cc(-c2cn(-c3ccccc3)nc2-c2cccc(O)c2)ccn1)c1ccc(F)cc1`, the GI50 in the assay with MCF7 breast is 3260 nM; in the assay on UO-31 renal it was 2620 nM; with K-562 leukemia, 2400 nM; in the assay with NCI-H226 lung, 4.49 µM; in the assay with SW-620 colon, 3.76 µM; in the assay with A549 NSCLC it was 5.11 µM. Further, the GI50 with T-47D breast was 2890 nM; in the assay with SK-MEL-2 melanoma it was 2.79 µM. Further, the TGI is 12.4 µM in the assay with MCF7 breast; 11.9 µM with UO-31 renal; 6.38 µM in the assay with K-562 leukemia; 21.6 µM in the assay on NCI-H226 lung; 14.2 µM in the assay on SW-620 colon; 21 µM in the assay with A549 NSCLC. Besides, the TGI came out at 8.76 µM in the assay with T-47D breast and 9.14 µM with SK-MEL-2 melanoma.

As to `O=C1C(Sc2ccc3ccccc3c2)=C(Sc2ccc3ccccc3c2)C(=O)c2ccccc21`, the TGI in the assay with MCF7 breast came out at 40.2 µM; with UO-31 renal, 15.8 µM; in the assay with K-562 leukemia, 19 µM; in the assay on NCI-H226 lung it was 37.4 µM; with SW-620 colon, 16.5 µM; with A549 NSCLC, 21.7 µM. In addition, the TGI was 4.62 µM in the assay with T-47D breast and 19.3 µM with SK-MEL-2 melanoma.

As for `N#Cc1cc2c(cc1Cl)Sc1nnc(Nc3cccc4ccccc34)n1S2(=O)=O`, the GI50 in the assay with MCF7 breast was 2100 nM; in the assay with UO-31 renal, 7410 nM; in the assay on K-562 leukemia it was 4080 nM; in the assay on NCI-H226 lung it was 7.83 µM; with SW-620 colon, 3.61 µM; in the assay on A549 NSCLC, 37 µM. Also, the GI50 with T-47D breast was 1250 nM; in the assay with SK-MEL-2 melanoma, 17.3 µM. Also, the TGI is 4.8 µM with MCF7 breast; 20.5 µM with UO-31 renal; above 100 µM in the assay on K-562 leukemia; 20.9 µM with NCI-H226 lung; 12.3 µM with SW-620 colon; above 100 µM with A549 NSCLC. Moreover, the TGI in the assay on T-47D breast is 3.67 µM; with SK-MEL-2 melanoma, above 100 µM.

Consider `CC1(C)[C@H](O)[C@H](F)C[C@@]2(C)Oc3ccc(C(=O)Nc4ccc5c(c4)NC(=O)C54CCN(CCCCC#N)CC4)cc3C[C@H]12`, for which the GI50 is 9.95 nM in the assay on MCF7 breast; 456 nM and 558 nM with UO-31 renal; 57.3 nM and 12 nM in the assay on K-562 leukemia; 2.91 µM in the assay with NCI-H226 lung; 0.0943 µM and 0.0405 µM with SW-620 colon; 3760 nM and 2490 nM with T-47D breast. The GI50 with SK-MEL-2 melanoma is 1.14 µM. Also, the TGI was 9.63 µM and 8.28 µM in the assay on MCF7 breast; 8.32 µM and 11.4 µM in the assay on UO-31 renal; 4.81 µM and 1.48 µM in the assay with K-562 leukemia; 17.4 µM in the assay on NCI-H226 lung; 2.52 µM and 2.68 µM in the assay with SW-620 colon; 8.4 µM in the assay with A549 NSCLC. Further, the TGI stood at 26.1 µM in the assay on T-47D breast and 2.44 µM with SK-MEL-2 melanoma.

`Nc1nc(-c2ccc(Cl)cc2)nc2c1sc(=S)n2-c1ccccc1`: the GI50 with MCF7 breast was 4290 nM; in the assay on UO-31 renal it was 1840 nM; in the assay on K-562 leukemia it was 4750 nM; in the assay with NCI-H226 lung it was 2.78 µM; with SW-620 colon, 6.45 µM; in the assay with A549 NSCLC it was 3.67 µM. Moreover, the GI50 in the assay with T-47D breast is 2130 nM; with SK-MEL-2 melanoma, 10.7 µM. Besides, the TGI is above 100 µM in the assay on MCF7 breast; 4.19 µM with UO-31 renal; above 100 µM in the assay with K-562 leukemia; 6.73 µM with NCI-H226 lung; 82.9 µM in the assay on SW-620 colon; 25.4 µM with A549 NSCLC. Also, the results for the TGI in the assay on T-47D breast and with SK-MEL-2 melanoma were 5.54 µM and 41.2 µM, respectively.

Take `COc1cc(-c2ncn(/C=C\c3nnco3)n2)cc(C(F)(F)F)c1`: the GI50 in the assay with MCF7 breast was 179 nM; in the assay with UO-31 renal, 247 nM; in the assay on K-562 leukemia, 122 nM; in the assay on NCI-H226 lung, 0.0312 µM; in the assay with SW-620 colon, 0.0663 µM; in the assay on A549 NSCLC it was 0.109 µM. Moreover, the GI50 is 571 nM in the assay on T-47D breast and 0.0617 µM in the assay on SK-MEL-2 melanoma. For the same molecule, the TGI is above 33.4 µM with MCF7 breast; above 100 µM in the assay on UO-31 renal; above 100 µM in the assay on K-562 leukemia; 4.3 µM in the assay on NCI-H226 lung; 31.7 µM in the assay with SW-620 colon; above 68 µM in the assay with A549 NSCLC. Further, the TGI was above 59.9 µM in the assay on T-47D breast and 1.15 µM in the assay on SK-MEL-2 melanoma.
